Measurements: publication PMC7043210, “Differential activation of G protein‐mediated signaling by synthetic cannabinoid receptor agonists” (Pharmacology Research & Perspectives, 2020)
“Also recorded” adds a separate entry of the source. Read-outs that look alike come from different tables or passages of the source.

Assays:
CB1 [1] = test system: CB1; parameters: method as in PMID 29408093; settings: HEK cells transiently expressing CB1; cited from earlier work
HEK 293 wild‐type cells = test: FSK-stimulated cAMP accumulation in HEK 293 wild-type cells (not containing CB1 receptors); format: cell-based, human; settings: 10 µmol L^−1, HEK 293 wild-type cells
human CB1 receptor [2] = molecular target: T1, human CB1 receptor (Homo sapiens, UniProt P21554); format: cell-based
T1 construct: HA (hemagglutinin); expressed in transfected cells; host or cells: HEK 293 FlpIn cells with GIRK4 expression, stably transfected (pcDNA5/FRT + pOG44)
T1 sequence (P21554 whole entry): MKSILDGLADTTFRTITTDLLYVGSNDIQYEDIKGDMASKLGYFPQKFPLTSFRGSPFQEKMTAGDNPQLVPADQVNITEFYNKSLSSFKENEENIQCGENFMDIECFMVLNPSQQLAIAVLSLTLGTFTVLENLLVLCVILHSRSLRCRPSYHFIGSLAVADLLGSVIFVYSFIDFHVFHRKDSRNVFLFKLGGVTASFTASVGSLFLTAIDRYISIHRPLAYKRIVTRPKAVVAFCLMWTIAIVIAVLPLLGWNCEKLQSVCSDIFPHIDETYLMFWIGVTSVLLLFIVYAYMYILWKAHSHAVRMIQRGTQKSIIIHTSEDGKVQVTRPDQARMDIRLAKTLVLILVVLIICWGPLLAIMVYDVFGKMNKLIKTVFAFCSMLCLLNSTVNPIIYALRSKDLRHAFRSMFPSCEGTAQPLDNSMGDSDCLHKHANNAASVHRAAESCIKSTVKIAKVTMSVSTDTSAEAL

CB1 [3] = test system: CB1; parameters: method as in PMID 30925348, PMID 26795398, PMID 29042214, PMID 28874764, PMID 25769232; settings: mice; cited from earlier work
human CB1 receptor [4] = molecular target: T1, human CB1 receptor; format: cell-based; remark: listed apart in the source
[5] = read-out: G i (‐PTX) EC50 (converted)
[6] = read-out: G s (+PTX) EC50 (converted)
[7] = read-out: Gs (+PTX) EC50 (converted)

SMILES | effect of SR141716A pretreatment on SCRA-mediated stimulation of FSK-induced cAMP response (human CB1 receptor [2]) | induced seizures, mechanism (CB1 [3]) | G i (‐PTX) E max (% FSK) (human CB1 receptor [4]) | G i (‐PTX) pEC50 (human CB1 receptor [4]) | G i (−PTX) selectivity (human CB1 receptor [4]) | EC50 (human CB1 receptor [4]; [5]) | G s (+PTX) E max (% FSK) (human CB1 receptor [2]) | G s (+PTX) pEC50 (human CB1 receptor [2]) | EC50 (human CB1 receptor [2]; [6]) | increase in cAMP levels above that produced by FSK alone (human CB1 receptor [2]) | also measured
CC(C)[C@H](NC(=O)c1nn(CC2CCCCC2)c2ccccc12)C(N)=O | only partially inhibited; also recorded: not significantly different |  |  |  |  |  |  |  |  |  | effect on cAMP levels in absence and presence of forskolin (CB1 [1]): elevation in cAMP levels; increase in FSK‐stimulated cAMP accumulation (HEK 293 wild‐type cells): 29 ± 10%; increase in cAMP levels above that of FSK alone (human CB1 receptor [2]): 86 ± 21%
CCCCC/C=C\C/C=C\C/C=C\C/C=C\CCCC(=O)OC(CO)CO [2‐AG, 2‐arachidonoyl glycerol, reference compound] |  |  |  |  |  |  |  |  |  |  | effect on cAMP relative to CP55940 (human CB1 receptor [2]): approximately twice that of CP55940
CC(C)[C@H](NC(=O)c1nn(CCCCCF)c2ccccc12)C(N)=O [5F‐AB‐PINACA] |  | CB1‐mediated |  |  |  |  |  |  |  |  | 
COC(=O)[C@@H](NC(=O)c1cn(CCCCCF)c2ccccc12)C(C)(C)C [5F‐MDMB‐PICA] | inhibited |  | 60 ± 4 % FSK | 9.2 ± 0.2 (0.62) | 137 | 0.00062 µM | 126 ± 5 % FSK | 7.1 ± 0.4 (85) | 0.085 µM |  | effect of SR141716A pretreatment on SCRA-induced inhibition of cAMP signaling (human CB1 receptor [4]): blocked
CC(C)[C@H](NC(=O)c1nn(Cc2ccc(F)cc2)c2ccccc12)C(N)=O [AB‐FUBINACA] | inhibited |  | 61 ± 2 % FSK | 9.0 ± 0.2 (0.96) |  | 0.00096 µM | 144 ± 12 % FSK |  |  | more than 30% | Gi (-PTX) selectivity (human CB1 receptor [4]): 348; effect of SR141716A pretreatment on SCRA-induced inhibition of cAMP signaling (human CB1 receptor [4]): blocked; EC50 (human CB1 receptor [4]; read-out: Gi (-PTX) EC50 (converted)): 0.0011 µM; effect on cAMP relative to CP55940 (human CB1 receptor [2]): up to 2.5 times; EC50 (human CB1 receptor [2]; [7]): 0.383 µM
CCCCCn1nc(C(=O)N[C@H](C(N)=O)C(C)C)c2ccccc21 [AB‐PINACA] |  |  |  |  |  |  |  |  |  | more than 30% | 
O=C(c1cccc2ccccc12)c1cn(CCCCCF)c2ccccc12 [AM‐2201] |  | CB1‐mediated |  |  |  |  |  |  |  |  | 
CCCCCCC(C)(C)c1ccc([C@@H]2C[C@H](O)CC[C@H]2CCCO)c(O)c1 [CP55940, reference compound] |  |  |  |  |  |  |  |  |  | 19% | 
CC(C)(NC(=O)c1nn(CCCCC#N)c2ccccc12)c1ccccc1 [CUMYL‐4CN‐BINACA, reference compound] |  | CB1‐mediated |  |  |  |  |  |  |  |  | 
CCCCCn1cc(C(=O)c2cccc3ccccc23)c2ccccc21 [JWH‐018] | inhibited | CB1‐mediated |  | 7.8 ± 0.2 (16) | 18 | 0.016 µM | 114 ± 4 % FSK | 6.5 ± 0.7 (288) | 0.288 µM |  | Gi (-PTX) selectivity (human CB1 receptor [4]): 14; effect of SR141716A pretreatment on SCRA-induced inhibition of cAMP signaling (human CB1 receptor [4]): blocked; Gs (+PTX) pEC50 (human CB1 receptor [2]): 6.7 ± 0.7 (221); activation of Gαs pathway (increase over FSK alone) (human CB1 receptor [2]): 14%; EC50 (human CB1 receptor [2]; [7]): 0.221 µM
CCCCCn1cc(C(=O)Oc2cccc3cccnc23)c2ccccc21 [PB‐22] |  |  | 64 ± 3 % FSK | 8.6 ± 0.2 (2.5) | 28 | 0.0025 µM | 130 ± 3 % FSK | 7.2 ± 0.5 (69) | 0.069 µM | more than 30% | 
CC1(C)C(C(=O)c2cn(CCCCCF)c3ccccc23)C1(C)C [XLR‐11] |  |  | 63 ± 2 % FSK | 7.2 ± 0.2 (63) | 75 | 0.063 µM | 124 ± 5 % FSK | 5.3 ± 0.8 (4720) | 4.72 µM |  | Gi (-PTX) selectivity (human CB1 receptor [4]): 103; Gs (+PTX) pEC50 (human CB1 receptor [2]): 5.2 ± 0.8 (6490); EC50 (human CB1 receptor [2]; [7]): 6.49 µM
